Results as given in patent US20140120232A1, “ACID TASTE/ACID SMELL-REDUCING AGENT” (T. HASEGAWA CO., LTD., priority 2011, published 2014).

Assay: Sensory evaluation of Vermont drink containing the agent
Conditions: ten panels
Outline: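 Tridecadienal or tridecatrienal isomers added at various concentrations to a Vermont-flavoured drink (apple-cider vinegar, honey, liquid sugar, citric acid, trisodium citrate, 100 mL total). Ten panelists assessed acid taste/acid smell and aldehyde-type off-odour, and the concentration giving the best acid taste/smell quality was selected.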

CCCCC/C=C\C/C=C\CCC=O [(Z,Z)-4,7-tridecadienal]
1: B: number of panels, acid taste/acid smell slightly strong and slightly cause irritation (0.02 ppt) | C: number of panels, acid taste/acid smell slightly unpleasant (0.02 ppt) | A: number of panels, acid taste/acid smell extreme and cause irritation (0.5 ppt) | B: number of panels, acid taste/acid smell slightly strong and slightly cause irritation (0.5 ppt) | Flavor judgment: number of panels who judged acid taste/acid smell quality the highest (0.5 ppt) | B: number of panels, acid taste/acid smell slightly strong and slightly cause irritation (1 ppt) | B: number of panels, acid taste/acid smell slightly strong and slightly cause irritation (5 ppt) | B: number of panels, acid taste/acid smell slightly strong and slightly cause irritation (10 ppb) | X: number of panels, acid taste reduced but piercing odor characteristic to aldehydes unpleasant (20 ppt) | C: number of panels, acid taste/acid smell slightly unpleasant (50 ppb) | B: number of panels, acid taste/acid smell slightly strong and slightly cause irritation (100 ppt)
2: B: number of panels, acid taste/acid smell slightly strong and slightly cause irritation (0.1 ppt) | C: number of panels, acid taste/acid smell slightly unpleasant (0.1 ppt) | C: number of panels, acid taste/acid smell slightly unpleasant (0.2 ppt) | Flavor judgment: number of panels who judged acid taste/acid smell quality the highest (1 ppt) | C: number of panels, acid taste/acid smell slightly unpleasant (5 ppt) | C: number of panels, acid taste/acid smell slightly unpleasant (10 ppb) | N: number of panels, irritation of acid reduced to give a mild acid taste (10 ppb) | N: number of panels, irritation of acid reduced to give a mild acid taste (50 ppb) | X: number of panels, acid taste reduced but piercing odor characteristic to aldehydes unpleasant (100 ppt) | B: number of panels, acid taste/acid smell slightly strong and slightly cause irritation (500 ppt) | C: number of panels, acid taste/acid smell slightly unpleasant (500 ppt) | X: number of panels, acid taste reduced but piercing odor characteristic to aldehydes unpleasant (500 ppt)
3: B: number of panels, acid taste/acid smell slightly strong and slightly cause irritation (0.2 ppt) | C: number of panels, acid taste/acid smell slightly unpleasant (0.5 ppt) | C: number of panels, acid taste/acid smell slightly unpleasant (1 ppb) | N: number of panels, irritation of acid reduced to give a mild acid taste (1 ppb) | C: number of panels, acid taste/acid smell slightly unpleasant (1 ppt) | C: number of panels, acid taste/acid smell slightly unpleasant (20 ppt) | Flavor judgment: number of panels who judged acid taste/acid smell quality the highest (20 ppt) | C: number of panels, acid taste/acid smell slightly unpleasant (100 ppt)
6: A: number of panels, acid taste/acid smell extreme and cause irritation (0.1 ppt) | N: number of panels, irritation of acid reduced to give a mild acid taste (1 ppt) | N: number of panels, irritation of acid reduced to give a mild acid taste (20 ppt)
0: B: number of panels, acid taste/acid smell slightly strong and slightly cause irritation (0.005 ppt) | C: number of panels, acid taste/acid smell slightly unpleasant (0.005 ppt) | Flavor judgment: number of panels who judged acid taste/acid smell quality the highest (0.005 ppt) | N: number of panels, irritation of acid reduced to give a mild acid taste (0.005 ppt) | X: number of panels, acid taste reduced but piercing odor characteristic to aldehydes unpleasant (0.005 ppt) | Flavor judgment: number of panels who judged acid taste/acid smell quality the highest (0.02 ppt) | N: number of panels, irritation of acid reduced to give a mild acid taste (0.02 ppt) | X: number of panels, acid taste reduced but piercing odor characteristic to aldehydes unpleasant (0.02 ppt) | Flavor judgment: number of panels who judged acid taste/acid smell quality the highest (0.1 ppt) | N: number of panels, irritation of acid reduced to give a mild acid taste (0.1 ppt) | X: number of panels, acid taste reduced but piercing odor characteristic to aldehydes unpleasant (0.1 ppt) | Flavor judgment: number of panels who judged acid taste/acid smell quality the highest (0.2 ppt) | N: number of panels, irritation of acid reduced to give a mild acid taste (0.2 ppt) | X: number of panels, acid taste reduced but piercing odor characteristic to aldehydes unpleasant (0.2 ppt) | X: number of panels, acid taste reduced but piercing odor characteristic to aldehydes unpleasant (0.5 ppt) | A: number of panels, acid taste/acid smell extreme and cause irritation (1 ppb) | B: number of panels, acid taste/acid smell slightly strong and slightly cause irritation (1 ppb) | Flavor judgment: number of panels who judged acid taste/acid smell quality the highest (1 ppb) | A: number of panels, acid taste/acid smell extreme and cause irritation (1 ppt) | X: number of panels, acid taste reduced but piercing odor characteristic to aldehydes unpleasant (1 ppt) | A: number of panels, acid taste/acid smell extreme and cause irritation (5 ppt) | X: number of panels, acid taste reduced but piercing odor characteristic to aldehydes unpleasant (5 ppt) | A: number of panels, acid taste/acid smell extreme and cause irritation (10 ppb) | Flavor judgment: number of panels who judged acid taste/acid smell quality the highest (10 ppb) | A: number of panels, acid taste/acid smell extreme and cause irritation (20 ppt) | B: number of panels, acid taste/acid smell slightly strong and slightly cause irritation (20 ppt) | A: number of panels, acid taste/acid smell extreme and cause irritation (50 ppb) | B: number of panels, acid taste/acid smell slightly strong and slightly cause irritation (50 ppb) | Flavor judgment: number of panels who judged acid taste/acid smell quality the highest (50 ppb) | A: number of panels, acid taste/acid smell extreme and cause irritation (100 ppt) | Flavor judgment: number of panels who judged acid taste/acid smell quality the highest (100 ppt) | A: number of panels, acid taste/acid smell extreme and cause irritation (500 ppt) | Flavor judgment: number of panels who judged acid taste/acid smell quality the highest (500 ppt)
4: X: number of panels, acid taste reduced but piercing odor characteristic to aldehydes unpleasant (1 ppb) | Flavor judgment: number of panels who judged acid taste/acid smell quality the highest (5 ppt) | N: number of panels, irritation of acid reduced to give a mild acid taste (100 ppt) | N: number of panels, irritation of acid reduced to give a mild acid taste (500 ppt)
10: A: number of panels, acid taste/acid smell extreme and cause irritation (0.005 ppt)
7: N: number of panels, irritation of acid reduced to give a mild acid taste (5 ppt) | X: number of panels, acid taste reduced but piercing odor characteristic to aldehydes unpleasant (50 ppb)
5: A: number of panels, acid taste/acid smell extreme and cause irritation (0.2 ppt) | N: number of panels, irritation of acid reduced to give a mild acid taste (0.5 ppt) | X: number of panels, acid taste reduced but piercing odor characteristic to aldehydes unpleasant (10 ppb)
8: A: number of panels, acid taste/acid smell extreme and cause irritation (0.02 ppt)
